Data reported in patent publication US20110251230A1, “THERAPEUTICS FOR NEUROLOGICAL DISORDERS” (UNIVERSITY OF SHEFFIELD, priority 2008, published 2011).
Counter-ions that a name gives are not always drawn. Like-named read-outs stand apart in the source and are kept apart here.

Key:
[1] = test system: NRF2-ARE pathway in the CHO 4× ARE-TK cell line; assay: ARE reporter assay in CHO 4×ARE-TK-GFP cell line (GFP induction, EthD1 toxicity); details: for EC50: read-out: Average EC50; for maximal fold induction: read-out: Average fold GFP induction at maximal response
Method: Chinese Hamster Ovary (CHO), NSC34 mouse motor neuronal cells, C6 (rat) and 1321N1 (human) astrocytic lines were routinely maintained in DMEM supplemented with 10% FBS and penicillin/streptomycin. […] These plasmids were transfected into CHO, C6 and 1321N1 cell lines using Lipofectamine 2000 (Invitrogen) and following 10-14 days of selection in 0.5 mg/ml G418 they were expanded and selected for basal eGFP expression using fluorescence activated cell sorting (BD, FACSAria) with two sequential cell sorts for each cell line. These mixed populations of stable transfectants with basal eGFP expression were used in subsequent assays and designated 4×ARE-TK-GFP for the ARE containing line and TK-GFP for the control cell line. […]
Confluent cultures of 4×ARE-TK-GFP CHO or TK-GFP CHO expressing cells in 96 or 384-well tissue-culture plates were treated with drug (0.01-100 µM in triplicate) or vehicle (0.1-1% DMSO) in FCS-free DMEM in triplicate for 24 hours. The media was removed and replaced with the same volume of PBS containing 0.3 μM EthD1. […] Non-linear regression was used to fit a sigmoidal dose-response curve on a semi-Log plot to calculate the EC50 using GraphPad Prism (GraphPad Software). The reporter assay was conducted in a similar fashion in C6 and 1321N1 astrocyte cell lines stably transfected with the 4×ARE-TK-GFP and TK-GFP constructs except that Eth D1 was added directly in the media and read prior to washing the cells once and reading the […] signal. […]
The compounds were applied in triplicate to confluent cells in 96 well plates in serum free medium for 24 hours and the induction of GFP measured in a fluorescence plate reader. […]

[2] = test system: NSC34 mouse motor neuronal cells
Method: (§1) A simple oxidative stress assay was used to determine whether preconditioning with NRF2-ARE inducing drugs could protect against a subsequent oxidative stress insult (serum withdrawal). The NSC34, C6 and 1321N1 cells were plated in 96 well tissue culture plates to achieve 30% confluency. […] Media was then replaced with serum free, phenol free media for 5 hrs. […] Cell survival assay was then performed on the cells as protection is measured as % reduction in DCF signal, therefore data points were excluded where a decrease in cell number was measured.
(§2) Briefly methylthiazolyldiphenyl-tetrazolium bromide (MTT) was added to the cells and a blank well to a final concentration 0.5 mg/ml and incubated at 37° C. for 1-3 hrs depending on the cell line used.

[3] = test system: 1321N1 (human) astrocytic line
Method: as §1, §2

C6 (rat) astrocytic line [4] = test system: C6 (rat) astrocytic line
Method: as §1, §2

C6 (rat) astrocytic line [5] = assay: C6 oxidative stress assay (serum withdrawal, DCF); details: for IC50: C6, 24 h pre-treatment, serum withdrawal, DCF; for Maximal % reduction in Oxidative stress: C6, DCF fluorescence; for Lowest dose with toxicity: C6
Method: as §1, §2

[6] = test system: 1321N1 (human) astrocytic line; assay: 1321N1 oxidative stress assay (serum withdrawal, DCF); details: for IC50: 1321N1, 24 h pre-treatment, serum withdrawal, DCF; for Maximal % reduction in Oxidative stress: 1321N1, DCF fluorescence; for Lowest dose with toxicity: 1321N1
Method: as §1, §2

[7] = test system: NSC34 mouse motor neuronal cells; assay: NSC34 oxidative stress assay (serum withdrawal, DCF); details: for Maximal % reduction in Oxidative stress: NSC34, DCF fluorescence, negative = pro-oxidant; for Lowest dose with toxicity: NSC34
Method: as §1, §2

[8] = CHO 4×ARE-TK-GFP, GFP induction, 24 h

Row | Molecule | Lowest dose with toxicity ([1]; Chinese hamster, 24 h) | maximal fold induction ([1]; Cricetulus griseus, 24 h) | IC50 (C6 (rat) astrocytic line [5]) | IC50 [6] | Average fold GFP induction at maximal response ([1]; CHO 4×ARE-TK-GFP, 24 h) | Lowest dose with toxicity ([1]; CHO ARE reporter assay) | EC50 [1, 8] | Maximal % reduction in Oxidative stress (C6 (rat) astrocytic line [5]) | Maximal % reduction in Oxidative stress [7] | Maximal % reduction in Oxidative stress [6] | Lowest dose with toxicity (C6 (rat) astrocytic line [5]) | Lowest dose with toxicity [7] | Lowest dose with toxicity [6] | other results
1 | CC(C)N(C(=O)CCl)c1ccccc1 [Propachlor] | 100 µM | 3.25 | 0.645 µM | 0.829 µM | – | – | – | – | – | – | – | – | – | EC50 ([1]; Cricetulus griseus, 24 h): 1.49 µM; Lowest dose with toxicity ([2]; mouse, 24 h): 10 µM; Lowest dose with toxicity ([3]; human, 24 h): 10 µM; Lowest dose with toxicity (C6 (rat) astrocytic line [4]; rat, 24 h): 10 µM
2 | C[C@@H]1C(=O)O[C@H]2[C@H]1CC[C@@]1(C)C=CC(=O)[C@@]3(C)O[C@@]213 [epoxy(4,5α)-4,5-dihydrosantonin] | – | – | 2.13 µM | 0.662 µM | 2.91 fold | 100 µM | 18.2 µM | 62% | 0% | 63% | – | – | – | Lowest dose with toxicity [2]: 3 µM; Lowest dose with toxicity [3]: none; Lowest dose with toxicity (C6 (rat) astrocytic line [4]): none
3 | CC(=O)CCC(=O)O [levulinc acid, Levulinic acid] | – | 2.94 | – | – | – | – | – | – | – | – | none | none | none | Lowest dose with toxicity [1]: None
4 | CC(=O)O[C@@H]1C[C@H]2C(C)(C)C(=O)C=C[C@]2(C)[C@H]2CC[C@]3(C)C(=CC(=O)O[C@H]3c3ccoc3)[C@@]21C [deoxygedunin] | – | – | 2.19 µM | 1.41 µM | 1.82 fold | 30 µM | 1.15 µM | 61% | 7% | 25% | none | 10 µM | 10 µM | –
5 | COc1cccc(O)c1O [3 methoxycatechol] | 100 µM | 3.28 | – | – | – | – | – | – | – | – | 10 µM | 0.3 µM | none | –
6 | COc1ccc2c(c1)OC/C(=C/c1ccc(OC)c(OC)c1)C2=O [sappanone A trimethyl ether] | – | – | – | 0.279 µM | 1.99 fold | 100 µM | 3.5 µM | 27% | −60% | 40% | none | none | none | –
7 | COc1cc(O)cc(OC)c1OC [Antiarol] | 100 µM | 1.64 | – | – | – | – | – | – | – | – | 10 µM | 10 µM | none | –
8 | CC(=O)Oc1ccc(O)cc1 [4 acetoxyphenol] | 100 µM | 2.78 | – | – | – | – | – | – | – | – | none | none | none | –
9 | CC1=CC(=O)C(C(C)C)=CC1=O [Thymoquinone] | 30 µM | 2.58 | – | – | – | – | – | – | – | – | none | none | none | –
10 | Cc1[nH]c2ccccc2c1CN(C)C [2 methyl gramine] | – | – | 32 µM | 11 µM | 2.27 fold | 100 µM | 3 µM | 36% | −30% | 36% | none | 3 µM | none | –
11 | methyl-7-deshydroxypyrogallin-4-carboxylate | – | – | 2.95 µM | – | 2.83 fold | 100 µM | 2050 µM | 70% | −23% | 45% | none | 0.3 µM | none | –
12 | CC(=O)OC1CC[C@@]2(C)C(CC[C@H]3[C@@H]4CC=C(C(C)=O)[C@@]4(C)C(=O)C[C@@H]32)C1 (some centres unmarked) [3 acetoxypregn-16-en-12,20-dione] | 30 µM | 3.14 | – | ~12.4 µM | – | – | – | – | – | – | – | – | – | Lowest dose with toxicity [2]: none; Lowest dose with toxicity [3]: none; Lowest dose with toxicity (C6 (rat) astrocytic line [4]): none
13 | Euphol acetate | – | – | – | 18 µM | 2.20 fold | 100 µM | ~99 µM | 0% | −43% | 38% | none | none | none | –
14 | CC1=C2C(=CO[C@H](C)[C@H]2C)C(O)=C(C(=O)O)C1=O [Citrinin] | – | 3.26 | 20 µM | 0.338 µM | – | 30 µM | – | – | – | – | none | none | none | EC50 ([1]; Cricetulus griseus, 24 h): 4.1 µM
15 | COC(=O)[C@H](O)[C@H]1C(C)(C)[C@H](OC(C)=O)[C@@H]2CC3=C4CC(=O)O[C@@H](c5ccoc5)[C@]4(C)CC[C@@H]3[C@@]1(C)C2=O [swietenolide 3 acetate] | – | – | 4.22 µM | – | 2.82 fold | 100 µM | 3.5 µM | 50% | 0% | 60% | none | 0.3 µM | none | –
16 | CN1CCc2cccc3c2[C@H]1Cc1ccc(O)c(O)c1-3 [Apomorphine hydrochloride, reference compound] | 100 µM | 1.9 | – | – | – | – | – | – | – | – | none | 10 µM | none | –
